The numbers were not newly measured in patent US12551470B2, “Metabolism enhancing compositions” (Red Mountain Med Spa, LLC, priority 2022, dated 2026), which cites them from elsewhere.

The conditions of series [1]: compared to the other phytochemicals (11 phytochemicals, Tomer et al., J. Med. Food 2007).
The conditions of series [2]: compared to the other phytochemicals (11 phytochemicals, Tomer et al., J. Med. Food 2007). This is another data set of the same source.

Consider `O=C(O)CCCC[C@@H]1CCSS1` [α-lipoic acid, (R)-5-(1,2-dithiolan-3-yl)pentanoic acid], for which the ORAC values result in series [1] was “low”. Besides, in series [2], the TOSC values entry was “high”.
